One assay deals with grape callus. Put plainly: Production of stilbene compounds in grape callus culture treated with activity-inducing agent and solubilizing agent, HPLC analysis of culture extract. The class given is cell-based, Vitis vinifera L. cv Campbell Early. As to conditions: with 100 μM MeJA, 7-day grape callus culture medium, 50 mM stevioside, FIG. 3. The protocol:
Production of stilbene compounds was induced using the activity-inducing agent (100 μM MeJA) selected in Example 2 as described above. 20 ml of MS was inoculated with 2 g of grape callus, then cultured in a 125 ml flask for 7 days. Then, it was treated with 100 μM MeJA to obtain grape callus after 5 days. HPLC analysis was performed on the extract thereof. […] The experiment was performed to increase the production rate by solubilizing stilbene compound produced by treating with stevioside. As described above, 7-day grape callus culture was treated with 5 mM, 10 mM, 25 mM, and 50 mM stevioside at different concentrations or was treated with 100 μM MeJA and 5 mM, 10 mM, 2 5 mM, and 50 mM stevioside at different concentrations. After 5 days of culture, the samples were separated into callus and callus culture using a filter. The separated callus was filtered, followed by dehydration. The callus was frozen with liquid nitrogen and stored at −80° C. until extraction. The callus culture extract was directly extracted from the callus culture sample without storage so as to be used. […]

The subject of assay [1] is resveratrol biosynthesis gene (STS, ROMT). In words: Transcription expression analysis (RT-PCR) of resveratrol biosynthesis genes after activity-inducing agent treatment of grape callus liquid culture. The class given is cell-based, Vitis vinifera L. cv Campbell Early. To be noted: FIG. 2; for expression of the two genes (STS, ROMT): grape callus in MS1D liquid medium, 24 hours after treatment, RT-PCR. The procedure:
In order to establish a production system of resveratrol from grape callus, transcription expression analysis was performed through a liquid culture of stabilized grape callus derived in Example 1 as described above. It was performed in which they were cultured in MS1D (4.4 g of MS, 30 g of sucrose, 0.5 g of MES, 0.1 g of Miyo-inositol, 0.4 mg thiamine HCl, and 1 mg/L of 2,4-D), which is called a Murashige & Skoog (MS) medium containing 1 mg/L of 2,4-D, liquid medium at 25° C. and 90 rpm for 7 days, followed by treatment with an activity-inducing agent. After 24 hours, total RNA was isolated from the grape callus (Kim C Y et al. 2010, Physiologia plantarum 139: 259-261). cDNA was synthesized from the isolated total RNA (5 μg) using First-Strand cDNA Synthesis Kit (Fermantas, Canada) as described in the instruction. The synthesized cDNA (20 μl) was diluted 2.5 times and then subjected to RT-PCR using 2 μl as a template for genes related to resveratrol and pterostilbene biosynthesis from the grape callus. PCR amplification was carried out by denaturation at 94° C. for 2 minutes, 25 cycles of at 95° C. for 30 seconds, 50° C. for 40 seconds, and 72° C. for 1 minute, and a final extension reaction at 72° C. for 10 minutes. The grape resveratrol, pterostilbene biosynthesis gene, and grapactin RT-PCR primers used for this experiment were as follows: […]
Various activity-inducing agents were used for the treatment so as to promote the production of stilbene compound. The activity-inducing agents used herein were methyl jasmonate (MeJA), abscisic acid (ABA), salicylic acid (SA), ethephon, flagellin 22 (Flg22), methyl viologen (MV), and chitosan. The results confirmed that the expression of the two genes increased when MeJA, SA, and Flg22 were used and that the gene expression was the highest when MeJA was used (see FIG. 2).

`C=C1C[C@@]23CC[C@H]4[C@@](C)(CCC[C@@]4(C)C(=O)O[C@@H]4O[C@H](CO)[C@@H](O)[C@H](O)[C@H]4O)[C@@H]2CC[C@]1(O[C@@H]1O[C@H](CO)[C@@H](O)[C@H](O)[C@H]1O[C@@H]1O[C@H](CO)[C@@H](O)[C@H](O)[C@H]1O)C3` [stevioside]: the “content of the stilbene compound compared to the group untreated with stevioside” value with grape callus is on record as “significantly increased”. With `O=C(O)c1ccccc1O` [SA, salicylic acid], in assay [1], the “expression of the two genes (STS, ROMT)” value is recorded as “increased”. On to `CC/C=C\CC1C(=O)CCC1CC(=O)OC` (stereo not shown) [MeJA, methyl jasmonate], for which, in assay [1] (compared with ABA, SA, ethephon, Flg22, MV, chitosan), the “gene expression compared among activity-inducing agents” value is listed as “highest”. The “expression of the two genes (STS, ROMT)” value in assay [1] is reported as “increased”.

The record behind these values is patent US10920248B2, “Method for mass-producing viniferin using stevioside from cell culture of grapevine tissue” (KOREA RESEARCH INSTITUTE OF BIOSCIENCE AND BIOTECHNOLOGY, priority 2016, dated 2021).
